Reference: patent publication US10947389B2, “Composition, film, near infrared cut filter, laminate, pattern forming method, solid image pickup element, image display device, infrared sensor, and color filter” (FUJIFILM Corporation, priority 2016, dated 2021)

Key:
[1] = Evaluation of absorption maximum and absorbance ratio (500 nm/λmax) in solution; type: physicochemical; conditions: for Absorbance Ratio (500 nm/λmax) / Absorption Maximum (nm): solvent chloroform; for λmax (nm) of Second Near Infrared Absorbing Compound: as listed in Table 58; for Second Near Infrared Absorbing Compound λmax (nm): absorption maximum of the second near infrared absorbing compound
Excerpt: In this specification, “having an absorption maximum in a wavelength range of 650 to 1000 nm” denotes having a maximum absorbance in a wavelength range of 650 to 1000 nm in an absorption spectrum of the near infrared absorbing compound in a solution. Examples of a measurement solvent used for the measurement of the absorption spectra of the near infrared absorbing compound in the solution include chloroform, methanol, dimethyl sulfoxide, ethyl acetate, and tetrahydrofuran. In the case of a compound which is soluble in chloroform, chloroform is used as the measurement solvent. In the case of a compound which is not soluble in chloroform, methanol is used. In addition, In the case of a compound which is not soluble in chloroform and methanol, dimethyl sulfoxide is used.
Each of the compounds was dissolved in a measurement solvent shown in the following tables (concentration: 2.5×10^−6 mol/L) to measure an absorption spectrum (optical path length: 10 mm).
In addition, an absorbance ratio (500 nm/λmax) as a value obtained by dividing an absorbance at a wavelength of 500 nm by an absorbance at an absorption maximum was evaluated based on the following criteria.
A: the absorbance ratio (500 nm/λmax) was 0.04 or lower
B: the absorbance ratio (500 nm/λmax) was higher 0.04 and 0.08 or lower
C: the absorbance ratio (500 nm/λmax) was higher than 0.08

[2] = Evaluation of solubility in water at 23° C.; type: physicochemical; conditions: stirred for 1 hour
Experimental: Each of the compounds was added to water at 23° C. under the atmospheric pressure, the components were stirred for 1 hour, and the solubility of the compound in water was obtained. The solubility of the compound was evaluated based on the following criteria.
A: the solubility in water at 23° C. was 0.1 mass % or lower
B: the solubility in water at 23° C. was higher than 0.1 mass % and 1 mass % or lower
C: the solubility in water at 23° C. was higher than 1 mass %

Structure (SMILES)	Absorbance Ratio (500 nm/λmax) [1]	Absorption Maximum (nm) [1] [nm]	Solubility [2]	λmax (nm) of Second Near Infrared Absorbing Compound [1] [nm]	Second Near Infrared Absorbing Compound λmax (nm) [1] [nm]
Cc1ccccc1B(c1ccccc1C)n1c(-c2ccc(OCC(CCCCCCCC(C)C)CCCCCC(C)C)cc2)c2c(=C(C#N)c3nc4ccccc4o3)n(B(c3ccccc3C)c3ccccc3C)c(-c3ccc(OCC(CCCCCCCC(C)C)CCCCCC(C)C)cc3)c2c1=C(C#N)c1nc2ccccc2o1 (centres unmarked) [II-43]	A (the absorbance ratio (500 nm/λmax) was 0.04 or lower)	732	A (the solubility in water at 23 °C was 0.1 mass % or lower)		
CCCCC(CC)CC(=O)NC1=CC(=[N+](c2ccc(C)cc2)c2ccc(C)cc2)C=C/C1=C1\C(=O)C(c2ccc(N(c3ccc(C)cc3)c3ccc(C)cc3)cc2NC(=O)CC(CC)CCCC)=C1[O-] (centres unmarked) [Compound Q-3]	A (the absorbance ratio (500 nm/λmax) was 0.04 or lower)	737	A (the solubility in water at 23 °C was 0.1 mass % or lower)		
CCCCCCCCCCC(CCCCCCCC)COc1cccc(-c2c3/c(=C(\C#N)c4nc5ccccc5o4)n(B(c4ccccc4)c4ccccc4)c(-c4cccc(OCC(CCCCCCCC)CCCCCCCCCC)c4)c3/c(=C(\C#N)c3nc4ccccc4o3)n2B(c2ccccc2)c2ccccc2)c1 (centres unmarked) [II-29]	A (the absorbance ratio (500 nm/λmax) was 0.04 or lower)	743	A (the solubility in water at 23 °C was 0.1 mass % or lower)	743	
Cc1ccc2oc(/C(C#N)=c3/c4c(-c5cccc(OCC(CCC(C)CC(C)(C)C)C(C)CC(C)(C)C)c5)n(B(c5ccccc5)c5ccccc5)/c(=C(/C#N)c5nc6cc(C)ccc6o5)c4c(-c4cccc(OCC(CCC(C)CC(C)(C)C)C(C)CC(C)(C)C)c4)n3B(c3ccccc3)c3ccccc3)nc2c1 (centres unmarked) [II-186]	A (the absorbance ratio (500 nm/λmax) was 0.04 or lower)	748	A (the solubility in water at 23 °C was 0.1 mass % or lower)		743
Cc1ccc2oc(/C(C#N)=c3/c4c(-c5ccc(O)cc5)n(B(c5ccccc5)c5ccccc5)/c(=C(/C#N)c5nc6cc(C)ccc6o5)c4c(-c4ccc(O)cc4)n3B(c3ccccc3)c3ccccc3)nc2c1 [II-184]	A (the absorbance ratio (500 nm/λmax) was 0.04 or lower)	749	A (the solubility in water at 23 °C was 0.1 mass % or lower)		
CC(C)CCCCCCCC(CCCCCC(C)C)COc1ccc(-c2c3c(=C(C#N)c4cnc5cc(Cl)c(Cl)cc5n4)n(B(c4ccccc4)c4ccccc4)c(-c4ccc(OCC(CCCCCCCC(C)C)CCCCCC(C)C)cc4)c3c(=C(C#N)c3cnc4cc(Cl)c(Cl)cc4n3)n2B(c2ccccc2)c2ccccc2)cc1 (centres unmarked) [III-167]	A (the absorbance ratio (500 nm/λmax) was 0.04 or lower)	885	A (the solubility in water at 23 °C was 0.1 mass % or lower)		
CC(CCC(COc1ccc(-c2c3c(=C(C#N)c4nc5ccccc5s4)n(B(c4ccccc4)c4ccccc4)c(-c4ccc(OCC(CCC(C)CC(C)(C)C)C(C)CC(C)(C)C)cc4)c3c(=C(C#N)c3nc4ccccc4s3)n2B(c2ccccc2)c2ccccc2)cc1)C(C)CC(C)(C)C)CC(C)(C)C (centres unmarked) [II-508]	A (the absorbance ratio (500 nm/λmax) was 0.04 or lower)	780	A (the solubility in water at 23 °C was 0.1 mass % or lower)		
CCCCC(CC)CC(=O)Nc1cc2c(cc1C1=C([O-])/C(=c3/cc4c(cc3NC(=O)CC(CC)CCCC)=[N+](C)C(C)C4(C)C)C1=O)C(C)(C)C(C)N2C (centres unmarked) [Compound Q-36]	A (the absorbance ratio (500 nm/λmax) was 0.04 or lower)	704	A (the solubility in water at 23 °C was 0.1 mass % or lower)	704	
Cc1ccccc1B(c1ccccc1C)n1c(-c2ccc(OCC(CCC(C)CC(C)(C)C)C(C)CC(C)(C)C)cc2)c2/c(=C(\C#N)c3nc4ccccc4o3)n(B(c3ccccc3C)c3ccccc3C)c(-c3ccc(OCC(CCC(C)CC(C)(C)C)C(C)CC(C)(C)C)cc3)c2/c1=C(\C#N)c1nc2ccccc2o1 (centres unmarked) [II-44]	A (the absorbance ratio (500 nm/λmax) was 0.04 or lower)	732	A (the solubility in water at 23 °C was 0.1 mass % or lower)		
CC(CCC(COc1cccc(-c2c3/c(=C(\C#N)c4nc5cc(Cl)ccc5o4)n(B4Oc5ccccc5O4)c(-c4cccc(OCC(CCC(C)CC(C)(C)C)C(C)CC(C)(C)C)c4)c3/c(=C(\C#N)c3nc4cc(Cl)ccc4o3)n2B2Oc3ccccc3O2)c1)C(C)CC(C)(C)C)CC(C)(C)C (centres unmarked) [II-408]	A (the absorbance ratio (500 nm/λmax) was 0.04 or lower)	680	A (the solubility in water at 23 °C was 0.1 mass % or lower)	680	
CC(CCC(COc1ccc(-c2c3/c(=C(\C#N)c4cnc5cc(Cl)c(Cl)cc5n4)n(B(c4ccccc4)c4ccccc4)c(-c4ccc(OCC(CCC(C)CC(C)(C)C)C(C)CC(C)(C)C)cc4)c3/c(=C(\C#N)c3cnc4cc(Cl)c(Cl)cc4n3)n2B(c2ccccc2)c2ccccc2)cc1)C(C)CC(C)(C)C)CC(C)(C)C (centres unmarked) [III-168]	A (the absorbance ratio (500 nm/λmax) was 0.04 or lower)	885	A (the solubility in water at 23 °C was 0.1 mass % or lower)		
CC(C)CCCCCCCC(CCCCCC(C)C)COc1cccc(-c2c3c(=C(C#N)c4nc5ccccc5o4)n(B4Oc5ccccc5O4)c(-c4cccc(OCC(CCCCCCCC(C)C)CCCCCC(C)C)c4)c3c(=C(C#N)c3nc4ccccc4o3)n2B2Oc3ccccc3O2)c1 (centres unmarked) [II-91]	A (the absorbance ratio (500 nm/λmax) was 0.04 or lower)	679	A (the solubility in water at 23 °C was 0.1 mass % or lower)	679	
CC(CCC(COc1ccc(-c2c3/c(=C(\C#N)c4cnc5cc(Cl)c(Cl)cc5n4)n(B(c4ccccc4)c4ccccc4)c(-c4ccc(O)cc4)c3/c(=C(\C#N)c3cnc4cc(Cl)c(Cl)cc4n3)n2B(c2ccccc2)c2ccccc2)cc1)C(C)CC(C)(C)C)CC(C)(C)C (centres unmarked) [Compound V-42]	A (the absorbance ratio (500 nm/λmax) was 0.04 or lower)	885	A (the solubility in water at 23 °C was 0.1 mass % or lower)		
Cc1ccc2oc(/C(C#N)=c3/c4c(-c5cccc(OCC(CCC(C)CC(C)(C)C)C(C)CC(C)(C)C)c5)n(B5Oc6ccccc6O5)/c(=C(/C#N)c5nc6ccccc6s5)c4c(-c4cccc(OCC(CCC(C)CC(C)(C)C)C(C)CC(C)(C)C)c4)n3B3Oc4ccccc4O3)nc2c1 (centres unmarked) [IV-92]	A (the absorbance ratio (500 nm/λmax) was 0.04 or lower)	701	A (the solubility in water at 23 °C was 0.1 mass % or lower)	701	702
CCCCCCCCCCC(CCCCCCCC)COc1cccc(-c2c3c(=C(C#N)c4cnc5ccccc5n4)n(B(c4ccccc4)c4ccccc4)c(-c4cccc(OCC(CCCCCCCC)CCCCCCCCCC)c4)c3c(=C(C#N)c3cnc4ccccc4n3)n2B(c2ccccc2)c2ccccc2)c1 (centres unmarked) [III-29]	A (the absorbance ratio (500 nm/λmax) was 0.04 or lower)	863	A (the solubility in water at 23 °C was 0.1 mass % or lower)		
Cc1ccccc1B(c1ccccc1C)n1c(-c2ccc(OCC(CCCCCCCC(C)C)CCCCCC(C)C)cc2)c2c(=C(C#N)c3nc4ccccc4s3)n(B(c3ccccc3C)c3ccccc3C)c(-c3ccc(OCC(CCCCCCCC(C)C)CCCCCC(C)C)cc3)c2c1=C(C#N)c1nc2ccccc2s1 (centres unmarked) [II-541]	A (the absorbance ratio (500 nm/λmax) was 0.04 or lower)	772	A (the solubility in water at 23 °C was 0.1 mass % or lower)		
Cc1ccc2oc(/C(C#N)=c3/c4c(-c5ccc(OCC(CCC(C)CC(C)(C)C)C(C)CC(C)(C)C)cc5)n(B(c5ccccc5C)c5ccccc5C)/c(=C(/C#N)c5nc6cc(C)ccc6o5)c4c(-c4ccc(OCC(CCC(C)CC(C)(C)C)C(C)CC(C)(C)C)cc4)n3B(c3ccccc3C)c3ccccc3C)nc2c1 (centres unmarked) [II-202]	A (the absorbance ratio (500 nm/λmax) was 0.04 or lower)	737	A (the solubility in water at 23 °C was 0.1 mass % or lower)		
CC(CCC(COc1cccc(-c2c3/c(=C(\C#N)c4nc5ccccc5s4)n(B4Oc5ccccc5O4)c(-c4cccc(OCC(CCC(C)CC(C)(C)C)C(C)CC(C)(C)C)c4)c3/c(=C(\C#N)c3nc4ccccc4s3)n2B2Oc3ccccc3O2)c1)C(C)CC(C)(C)C)CC(C)(C)C (centres unmarked) [II-590]	A (the absorbance ratio (500 nm/λmax) was 0.04 or lower)	719	A (the solubility in water at 23 °C was 0.1 mass % or lower)	719	
